Measurements as given in patent US9890118B2, “Prostamides for the treatment of glaucoma and related diseases” (Allergan, Inc., priority 2004, dated 2018).
Marks after values point to notes of the source that are not given here.

Tested on: dogs (Beagle)
Experiment: Intraocular pressure studies by pneumatonometry in conscious dogs
Type: in vivo
Conditions: topical 25 μL drop, 0.03% drug in 0.1% polysorbate 80:10 mM TRIS, one eye; for Change in Intraocular Pressure (IOP), 0 hrs: 0 hrs (just before drug administration); for Change in Intraocular Pressure (IOP), 2 hrs: 2 hrs after dosing; for Change in Intraocular Pressure (IOP), 4 hrs: 4 hrs after dosing; for Change in Intraocular Pressure (IOP), 6 hrs: 6 hrs after dosing; for Change in Intraocular Pressure (IOP), 24 hrs: 24 hrs after dosing
Description: Intraocular pressure studies were carried out for compounds 1-3 by pneumatonometry in dogs (Beagle) of both sexes (10-15 kg). The animals remained conscious throughout the study and were gently restrained by hand. Drugs were administered topically to one eye as a 25 μL volume drop comprising 0.03% drug, 0.1% polysorbate 80:10 mM TRIS, the other eye received 0.1% polysorbate 80:10 mM TRIS. Proparacaine (0.1%) was used for corneal anesthesia during tonometry. Intraocular pressure was determined just before drug administration and at 2, 4 and 6 hours thereafter on each day of the 5 day study. […] Drug was administered immediately after the first IOP reading.

Row | Structure (SMILES) | Change in Intraocular Pressure (IOP), 0 hrs | Change in Intraocular Pressure (IOP), 2 hrs | Change in Intraocular Pressure (IOP), 4 hrs | Change in Intraocular Pressure (IOP), 6 hrs | Change in Intraocular Pressure (IOP), 24 hrs
1 | CCCCC[C@H](O)/C=C/[C@@H]1[C@@H](C/C=C\CCCC(=O)NCCc2ccc(OC(C)=O)c(OC(C)=O)c2)[C@@H](O)C[C@H]1O [Compound 1, acetic acid 2-acetoxy-5-(2-{(Z)-7-[(1R,2R,3R,5S)-3,5-dihydroxy-2-((E)-(S)-3-hydroxy-oct-1-enyl)-cyclopenyl]-hept-5-enoylamino}-ethyl)-phenyl ester] | 0 | −4.4** | −3.4** | −3.1** | −1.4*
2 | CCCCC[C@H](O)/C=C/[C@@H]1[C@@H](C/C=C\CCCC(=O)NCCc2ccc(O)c(O)c2)[C@@H](O)C[C@H]1O [Compound 2, (Z)-7-[(1R,2R,3R,5S)-3,5-Dihydroxy-2-((E)-(S)-3-hydroxy-oct-1-enyl)-cyclopentyl]-hept-5-enoic acid [2-(3,4-dihydroxy-phenyl)-ethyl]-amide] | 0 | −3.8* | −3.2** | −3.2** | −1.1*
3 | CCCCC[C@H](O)/C=C/[C@@H]1[C@@H](C/C=C\CCCC(=O)NCCc2c[nH]c3ccc(O)cc23)[C@@H](O)C[C@H]1O [Compound 3, (Z)-7-[(1R,2R,3R,5S)-3,5-Dihydroxy-2-((E)-(S)-3-hydroxy-oct-1-enyl)-cyclopentyl]-hept-5-enoic acid [2-(5-hydroxy-1H-indol-3-yl)-ethyl]-amide] | 0 | −3.2* | −5.8* | −7.6** | −2.2
